Results reported in US6762207B1, “(E)-styryl sulfone anticancer agents” (priority 1999, dated 2004).

Legend:
Assay type in all cases: cell-based
Design in all cases: dose or concentration left out as unconfirmed
Settings in all cases: 96 hours
[1] = system: prostate tumor cell line DU-145; assay: Trypan blue exclusion viability assay, DU145
Procedure: (§1) MCF-7 is estrogen-responsive, while BT-20 is an estrogen-unresponsive cell line. NIH/3T3 and HFL are normal murine and human fibroblasts, respectively. MCF-7, BT-20, DLD-1 and H157 were grown in Dulbecco's modified Eagle's medium (DMEM) containing 10% fetal bovine serum supplemented with penicillin and streptomycin. DU145 was cultured in RPMI with 10% fetal bovine serum containing penicillin and streptomycin. […] All cell cultures were maintained at 37° C. in a humidified atmosphere of 5% CO2. Cells were treated with test compound at 2.5 mM concentration and cell viability was determined after 96 hours by the Trypan blue exclusion method.

[2] = system: colorectal carcinoma cell line DLD-1; assay: Trypan blue exclusion viability assay, DLD-1
Procedure: as §1

[3] = system: breast tumor cell line BT-20; assay: Trypan blue exclusion viability assay, BT20
Procedure: as §1

[4] = system: non-small cell lung carcinoma cell line H157; assay: Trypan blue exclusion viability assay, H157
Procedure: as §1

## O=S(=O)(/C=C/c1ccc(Br)cc1)Cc1ccc(C(F)(F)F)cc1 [Example 3, (E)-4-Bromostyryl-4-trifluoromethylbenzylsulfone]
[1]
  Cell death, DU145: + (5-10%: = +)
[2]
  Cell death, DLD-1: + (5-10%: = +)
[3]
  Cell death, BT20: ++ (10-15% = ++)

## O=S(=O)(/C=C/c1ccc(Cl)cc1)Cc1ccc(Cl)c(Cl)c1 [Example 7, (E)-4-Chlorostyryl-3,4-dichlorobenzylsulfone]
[1]
  Cell death, DU145: − (0% = −)
[3]
  Cell death, BT20: ++ (10-15% = ++)

## O=S(=O)(/C=C/c1ccc(Br)cc1)Cc1ccc(Cl)c(Cl)c1 [Example 8, (E)-4-Bromostyryl-3,4-dichlorobenzylsulfone]
[1]
  Cell death, DU145: − (0% = −)
[2]
  Cell death, DLD-1: − (0% = −)
[3]
  Cell death, BT20: − (0% = −)

## O=S(=O)(/C=C/c1ccc(F)cc1)Cc1ccc(I)cc1 [Example 19, (E)-4-Fluorostyryl-4-iodobenzylsulfone]
[1]
  Cell death, DU145: +++++ (Above 80% = +++++)
[2]
  Cell death, DLD-1: +++++ (Above 80% = +++++)
[4]
  Cell death, H157: +++++ (Above 80% = +++++)
[3]
  Cell death, BT20: +++++ (Above 80% = +++++)

## O=S(=O)(/C=C/c1ccc(I)cc1)Cc1ccc(Cl)cc1 [Example 21, (E)-4-Iodostyryl-4-chlorobenzylsulfone]
[1]
  Cell death, DU145: ++ (10-15% = ++)
[2]
  Cell death, DLD-1: ++ (10-15% = ++)
[4]
  Cell death, H157: ++ (10-15% = ++)
[3]
  Cell death, BT20: ++ (10-15% = ++)

## O=S(=O)(/C=C/c1ccc(I)cc1)Cc1ccc(Br)cc1 [Example 22, (E)-4-Iodostyryl-4-bromobenzylsulfone]
[1]
  Cell death, DU145: ++ (10-15% = ++)
[2]
  Cell death, DLD-1: ++ (10-15% = ++)
[4]
  Cell death, H157: ++ (10-15% = ++)
[3]
  Cell death, BT20: ++ (10-15% = ++)

## O=S(=O)(/C=C/c1ccc(Cl)cc1)Cc1ccc(I)cc1 [Example 23, (E)-4-Chlorostyryl-4-iodobenzylsulfone]
[1]
  Cell death, DU145: ++ (10-15% = ++)
[2]
  Cell death, DLD-1: ++ (10-15% = ++)
[4]
  Cell death, H157: ++ (10-15% = ++)
[3]
  Cell death, BT20: +++ (40-50% = +++)

## O=[N+]([O-])c1ccccc1/C=C/S(=O)(=O)Cc1ccc(I)cc1 [Example 25, (E)-2-Nitrostyryl-4-iodobenzylsulfone]
[1]
  Cell death, DU145: ++ (10-15% = ++)
[2]
  Cell death, DLD-1: ++ (10-15% = ++)
[4]
  Cell death, H157: ++ (10-15% = ++)
[3]
  Cell death, BT20: ++ (10-15% = ++)

## O=[N+]([O-])c1ccccc1/C=C/S(=O)(=O)Cc1ccc(F)cc1 [Example 29, (E)-2-nitrostyryl-4-fluorobenzylsulfone]
[1]
  Cell death, DU145: + (5-10%: = +)
[2]
  Cell death, DLD-1: + (5-10%: = +)
[4]
  Cell death, H157: + (5-10%: = +)
[3]
  Cell death, BT20: + (5-10%: = +)

## O=[N+]([O-])c1cccc(/C=C/S(=O)(=O)Cc2ccc(F)cc2)c1 [Example 30, (E)-3-nitrostyryl-4-fluorobenzylsulfone]
[1]
  Cell death, DU145: + (5-10%: = +)
[2]
  Cell death, DLD-1: + (5-10%: = +)
[4]
  Cell death, H157: + (5-10%: = +)
[3]
  Cell death, BT20: + (5-10%: = +)

## O=[N+]([O-])c1ccc(/C=C/S(=O)(=O)Cc2ccc(F)cc2)cc1 [Example 31, (E)-4-nitrostyryl-4-fluorobenzylsulfone]
[1]
  Cell death, DU145: ++++ (50-60% = ++++)
[2]
  Cell death, DLD-1: ++++ (50-60% = ++++)
[4]
  Cell death, H157: ++++ (50-60% = ++++)
[3]
  Cell death, BT20: ++++ (50-60% = ++++)

## O=S(=O)(/C=C/c1ccccc1C(F)(F)F)Cc1ccc(F)cc1 [Example 32, (E)-2-trifluoromethylstyryl-4-fluorobenzylsulfone]
[1]
  Cell death, DU145: + (5-10%: = +)
[2]
  Cell death, DLD-1: + (5-10%: = +)
[4]
  Cell death, H157: + (5-10%: = +)
[3]
  Cell death, BT20: + (5-10%: = +)

## O=S(=O)(/C=C/c1cccc(C(F)(F)F)c1)Cc1ccc(F)cc1 [Example 33, (E)-3-trifluoromethylstyryl-4-fluorobenzylsulfone]
[1]
  Cell death, DU145: + (5-10%: = +)
[2]
  Cell death, DLD-1: + (5-10%: = +)
[4]
  Cell death, H157: + (5-10%: = +)
[3]
  Cell death, BT20: + (5-10%: = +)

## O=S(=O)(/C=C/c1ccc(C(F)(F)F)cc1)Cc1ccc(F)cc1 [Example 34, (E)4-trifluoromethylstyryl-4-fluorobenzylsulfone]
[1]
  Cell death, DU145: + (5-10%: = +)
[2]
  Cell death, DLD-1: + (5-10%: = +)
[4]
  Cell death, H157: + (5-10%: = +)
[3]
  Cell death, BT20: + (5-10%: = +)

## O=S(=O)(/C=C/c1ccc(F)cc1C(F)(F)F)Cc1ccc(F)cc1 [Example 35, (E)-2-trifluoromethy-4-fluorostyryl-4-fluorobenzylsulfone]
[1]
  Cell death, DU145: + (5-10%: = +)
[2]
  Cell death, DLD-1: + (5-10%: = +)
[4]
  Cell death, H157: + (5-10%: = +)
[3]
  Cell death, BT20: + (5-10%: = +)

## O=[N+]([O-])c1ccccc1/C=C/S(=O)(=O)Cc1ccc(Cl)cc1 [Example 36, (E)-2-nitrostyryl-4-chlorobenzylsulfone]
[1]
  Cell death, DU145: + (5-10%: = +)
[2]
  Cell death, DLD-1: + (5-10%: = +)
[4]
  Cell death, H157: + (5-10%: = +)
[3]
  Cell death, BT20: + (5-10%: = +)

## O=[N+]([O-])c1cccc(/C=C/S(=O)(=O)Cc2ccc(Cl)cc2)c1 [Example 37, (E)-3-nitrostyryl-4-chlorobenzylsulfone]
[1]
  Cell death, DU145: + (5-10%: = +)
[2]
  Cell death, DLD-1: + (5-10%: = +)
[4]
  Cell death, H157: + (5-10%: = +)
[3]
  Cell death, BT20: + (5-10%: = +)

## O=[N+]([O-])c1ccc(/C=C/S(=O)(=O)Cc2ccc(Cl)cc2)cc1 [Example 38, (E)-4-nitrostyryl-4-chlorobenzylsulfone]
[1]
  Cell death, DU145: ++++ (50-60% = ++++)
[2]
  Cell death, DLD-1: ++++ (50-60% = ++++)
[4]
  Cell death, H157: ++++ (50-60% = ++++)
[3]
  Cell death, BT20: ++++ (50-60% = ++++)

## O=S(=O)(/C=C/c1ccccc1C(F)(F)F)Cc1ccc(Cl)cc1 [Example 39, (E)-2-trifluoromethylstyryl-4-chlorobenzylsulfone]
[1]
  Cell death, DU145: + (5-10%: = +)
[2]
  Cell death, DLD-1: + (5-10%: = +)
[4]
  Cell death, H157: + (5-10%: = +)
[3]
  Cell death, BT20: + (5-10%: = +)

## O=S(=O)(/C=C/c1cccc(C(F)(F)F)c1)Cc1ccc(Cl)cc1 [Example 40, (E)-3-trifluoromethylstyryl-4-chlorobenzylsulfone]
[1]
  Cell death, DU145: + (5-10%: = +)
[2]
  Cell death, DLD-1: + (5-10%: = +)
[4]
  Cell death, H157: + (5-10%: = +)
[3]
  Cell death, BT20: + (5-10%: = +)

## O=S(=O)(/C=C/c1ccc(C(F)(F)F)cc1)Cc1ccc(Cl)cc1 [Example 41, (E)-4-trifluoromethylstyryl-4-chlorobenzylsulfone]
[1]
  Cell death, DU145: + (5-10%: = +)
[2]
  Cell death, DLD-1: + (5-10%: = +)
[4]
  Cell death, H157: + (5-10%: = +)
[3]
  Cell death, BT20: + (5-10%: = +)

## O=S(=O)(/C=C/c1ccc(F)cc1C(F)(F)F)Cc1ccc(Cl)cc1 [Example 42, (E)-2-trifluoromethyl-4-fluorostyryl-4-chlorobenzylsulfone]
[1]
  Cell death, DU145: + (5-10%: = +)
[2]
  Cell death, DLD-1: + (5-10%: = +)
[4]
  Cell death, H157: + (5-10%: = +)
[3]
  Cell death, BT20: + (5-10%: = +)

## Cc1cc(/C=C/S(=O)(=O)Cc2ccc(Cl)cc2)ccc1F [Example 43, (E)-3-methyl-4-fluorostyryl-4-chlorobenzylsulfone]
[1]
  Cell death, DU145: + (5-10%: = +)
[2]
  Cell death, DLD-1: + (5-10%: = +)
[4]
  Cell death, H157: + (5-10%: = +)
[3]
  Cell death, BT20: + (5-10%: = +)

## O=[N+]([O-])c1ccccc1/C=C/S(=O)(=O)Cc1ccc(Cl)cc1Cl [Example 44, (E)-2-nitrostyryl-2,4-dichlorobenzylsulfone]
[1]
  Cell death, DU145: + (5-10%: = +)
[2]
  Cell death, DLD-1: + (5-10%: = +)
[4]
  Cell death, H157: + (5-10%: = +)
[3]
  Cell death, BT20: + (5-10%: = +)

## O=S(=O)(/C=C/c1ccc(F)cc1C(F)(F)F)Cc1ccc(Cl)cc1Cl [Example 45, (E)-2-trifluoromethyl-4-fluorostyryl-2,4-dichlorobenzylsulfone]
[1]
  Cell death, DU145: +++ (40-50% = +++)
[2]
  Cell death, DLD-1: +++ (40-50% = +++)
[4]
  Cell death, H157: +++ (40-50% = +++)
[3]
  Cell death, BT20: +++ (40-50% = +++)
